Bridge positions count the residues as written; N and C are the ends. Square brackets hold non-standard residues; d marks the D form. Peptide text beside a SMILES is read from it.
How the values were obtained:
[1] = system: H1N1 A/PR/8/1934; conditions: A/PR/8/1934, 48 h; for % Inhibition: 1 μM
[2] = system: H9N2 A/Iran/16/2000; conditions: 48 h, 500 μM
[3] = system: H1N1 A1/Malaysia/302/1954; conditions: A1/Malaysia/302/1954, 48 h, 500 μM
[4] = system: H3N8 A/Miami/2/63; conditions: A/Miami/2/63, 48 h, 500 μM

SMILES | % Inhibition [1] [%] | further results
CC[C@@H](C)[C@H]1NC(=O)[C@@H](Cc2ccccc2)NC(=O)[C@@H]([C@H](C)O)NC(=O)[C@@H](Cc2ccccc2)NC(=O)[C@@H](Cc2c[nH]c3ccccc23)NC(=O)[C@@H](Cc2c[nH]c3ccccc23)NC(=O)[C@H](NC(=O)[C@H](CCCCN)NC(=O)[C@H](CCCCN)NC(=O)[C@H](CCCNC(=N)N)NC(=O)[C@@H](N)CCCNC(=N)N)CSSC[C@H](C(=O)O)NC(=O)[C@@H](Cc2c[nH]c3ccccc23)NC1=O [PSP VI A19, H-RRKKcwwftfiwc-OH] (H-RRKK[dC][dW][dW][dF][dT][dF][dI][dW][dC]-OH; disulfide 5-13) | 78 | 
CC[C@@H](C)[C@H]1NC(=O)[C@@H](Cc2ccccc2)NC(=O)[C@@H]([C@H](C)O)NC(=O)[C@@H](Cc2ccccc2)NC(=O)[C@@H](Cc2c[nH]c3ccccc23)NC(=O)[C@@H](Cc2c[nH]c3ccccc23)NC(=O)[C@H](NC(=O)[C@H](CCCCN)NC(=O)[C@H](CCCCN)NC(=O)[C@H](CCCNC(=N)N)NC(=O)[C@@H](N)CCCNC(=N)N)CSSC[C@H](C(=O)O)NC(=O)[C@@H](CCCNC(=N)N)NC1=O [PSP VI A15, H-RRKKcwwftfirc-OH] (H-RRKK[dC][dW][dW][dF][dT][dF][dI][dR][dC]-OH; disulfide 5-13) | 92 | 
CC[C@@H](C)[C@H]1NC(=O)[C@@H](Cc2ccccc2)NC(=O)[C@@H]([C@H](C)O)NC(=O)[C@@H](Cc2ccccc2)NC(=O)[C@@H](Cc2c[nH]c3ccccc23)NC(=O)[C@@H](Cc2c[nH]c3ccccc23)NC(=O)[C@H](NC(=O)[C@H](CCCCN)NC(=O)[C@H](CCCCN)NC(=O)[C@H](CCCNC(=N)N)NC(=O)[C@@H](N)CCCNC(=N)N)CSSC[C@H](C(=O)O)NC(=O)[C@@H](CC(N)=O)NC1=O [PSP V A19, H-RRKKcwwftfinc-OH] (H-RRKK[dC][dW][dW][dF][dT][dF][dI][dN][dC]-OH; disulfide 5-13) | 97 | IC50 [1]: 20 nM
CC[C@@H](C)[C@H]1NC(=O)[C@@H](Cc2ccccc2)NC(=O)[C@@H]([C@H](C)O)NC(=O)[C@@H](Cc2ccccc2)NC(=O)[C@@H](Cc2c[nH]c3ccccc23)NC(=O)[C@@H](Cc2c[nH]c3ccccc23)NC(=O)[C@H](NC(=O)[C@H](CCCCN)NC(=O)[C@H](CCCCN)NC(=O)[C@H](CCCNC(=N)N)NC(=O)[C@@H](N)CCCNC(=N)N)CSSC[C@H](C(=O)O)NC(=O)[C@@H](CCSC)NC1=O [PSP VI A11, H-RRKKcwwftfimc-OH] (H-RRKK[dC][dW][dW][dF][dT][dF][dI][dM][dC]-OH; disulfide 5-13) | 79 | 
CC[C@@H](C)[C@H]1NC(=O)[C@@H](Cc2ccccc2)NC(=O)[C@@H]([C@H](C)O)NC(=O)[C@@H](Cc2ccccc2)NC(=O)[C@@H](Cc2c[nH]c3ccccc23)NC(=O)[C@@H](Cc2c[nH]c3ccccc23)NC(=O)[C@H](NC(=O)[C@H](CCCCN)NC(=O)[C@H](CCCCN)NC(=O)[C@H](CCCNC(=N)N)NC(=O)[C@@H](N)CCCNC(=N)N)CSSC[C@H](C(=O)O)NC(=O)[C@@H](CS)NC1=O [PSP VI A2, H-RRKKcwwftficc-OH] (H-RRKK[dC][dW][dW][dF][dT][dF][dI][dC][dC]-OH; disulfide 5-13) | 95 | 
CC[C@@H](C)[C@H]1NC(=O)[C@@H](Cc2ccccc2)NC(=O)[C@@H]([C@H](C)O)NC(=O)[C@@H](Cc2ccccc2)NC(=O)[C@@H](Cc2c[nH]c3ccccc23)NC(=O)CNC(=O)[C@H](NC(=O)[C@H](CCCCN)NC(=O)[C@H](CCCCN)NC(=O)[C@H](CCCNC(=N)N)NC(=O)[C@@H](N)CCCNC(=N)N)CSSC[C@H](C(=O)O)NC(=O)[C@@H](CC(N)=O)NC1=O [PSP V A6, H-RRKKcGwftfinc-OH] (H-RRKK[dC]G[dW][dF][dT][dF][dI][dN][dC]-OH; disulfide 5-13) | <20 | 
CC[C@@H](C)[C@H]1NC(=O)[C@@H](Cc2ccccc2)NC(=O)[C@@H]([C@H](C)O)NC(=O)[C@@H](Cc2ccccc2)NC(=O)[C@@H](Cc2c[nH]c3ccccc23)NC(=O)[C@@H](Cc2ccc(O)cc2)NC(=O)[C@H](NC(=O)[C@H](CCCCN)NC(=O)[C@H](CCCCN)NC(=O)[C@H](CCCNC(=N)N)NC(=O)[C@@H](N)CCCNC(=N)N)CSSC[C@H](C(=O)O)NC(=O)[C@@H](CC(N)=O)NC1=O [PSP V A20, H-RRKKcywftfinc-OH] (H-RRKK[dC][dY][dW][dF][dT][dF][dI][dN][dC]-OH; disulfide 5-13) | <20 | 
CC[C@@H](C)[C@H]1NC(=O)[C@@H](Cc2ccccc2)NC(=O)[C@@H]([C@H](C)O)NC(=O)[C@@H](Cc2ccccc2)NC(=O)[C@@H](Cc2c[nH]c3ccccc23)NC(=O)[C@@H](Cc2c[nH]c3ccccc23)NC(=O)[C@H](NC(=O)[C@H](CCCCN)NC(=O)[C@H](CCCCN)NC(=O)[C@H](CCCNC(=N)N)NC(=O)[C@@H](N)CCCNC(=N)N)CSSC[C@H](C(=O)O)NC(=O)[C@@H]([C@H](C)CC)NC1=O [PSP VI A8, H-RRKKcwwftfiic-OH] (H-RRKK[dC][dW][dW][dF][dT][dF][dI][dI][dC]-OH; disulfide 5-13) | 49 | 
CC[C@@H](C)[C@H]1NC(=O)[C@@H](Cc2ccccc2)NC(=O)[C@@H]([C@H](C)O)NC(=O)[C@@H](Cc2ccccc2)NC(=O)[C@@H](Cc2c[nH]c3ccccc23)NC(=O)[C@@H](CS)NC(=O)[C@H](NC(=O)[C@H](CCCCN)NC(=O)[C@H](CCCCN)NC(=O)[C@H](CCCNC(=N)N)NC(=O)[C@@H](N)CCCNC(=N)N)CSSC[C@H](C(=O)O)NC(=O)[C@@H](CC(N)=O)NC1=O [PSP V A2, H-RRKKccwftfinc-OH] (H-RRKK[dC][dC][dW][dF][dT][dF][dI][dN][dC]-OH; disulfide 5-13) | <20 | 
CC[C@@H](C)[C@H]1NC(=O)[C@@H](Cc2ccccc2)NC(=O)[C@@H](CCCNC(=N)N)NC(=O)[C@@H](CO)NC(=O)[C@H]2CCCN2C(=O)[C@@H]([C@H](C)O)NC(=O)[C@H](NC(=O)[C@@H](CCCCN)NC(=O)[C@@H](CCCCN)NC(=O)[C@@H](CCCNC(=N)N)NC(=O)[C@H](N)CCCNC(=N)N)CSSC[C@H](C(=O)O)NC(=O)[C@@H](CC(N)=O)NC1=O [PSP II A13, H-rrkkctpsrfinc-OH] (H-[dR][dR][dK][dK][dC][dT][dP][dS][dR][dF][dI][dN][dC]-OH; disulfide 5-13) |  | % inhibition H9N2 [2]: 70%; % inhibition H1N1 [3]: 86.5%; % inhibition H3N8 [4]: 97%
CC[C@@H](C)[C@H]1NC(=O)[C@@H](Cc2ccccc2)NC(=O)[C@@H](CCCNC(=N)N)NC(=O)[C@@H](CO)NC(=O)[C@@H](Cc2c[nH]cn2)NC(=O)[C@@H]([C@H](C)O)NC(=O)[C@H](NC(=O)[C@@H](CCCCN)NC(=O)[C@@H](CCCCN)NC(=O)[C@@H](CCCNC(=N)N)NC(=O)[C@H](N)CCCNC(=N)N)CSSC[C@H](C(=O)O)NC(=O)[C@@H](CC(N)=O)NC1=O [PSP II A7, H-rrkkcthsrfinc-OH] (H-[dR][dR][dK][dK][dC][dT][dH][dS][dR][dF][dI][dN][dC]-OH; disulfide 5-13) |  | % inhibition H9N2 [2]: 50%; % inhibition H1N1 [3]: 71%; % inhibition H3N8 [4]: 81.5%
